We go through 6 molecules from patent publication EP3502234B1, “ANAEROBIC AMMONIUM OXIDATION WITH PLANKTONIC CELLS IN A CONTINUOUS OR SEMI-CONTINUOUS STIRRED-TANK REACTOR” (priority 2017, dated 2019).

A word on the inhibition: it is the percentage by which the read-out fell short of the control. The term pIC50 denotes −log10 of the IC50, conventionally taken in molar units. Read a high pIC50 as a low IC50. By IC50 is commonly meant the midpoint of a concentration-inhibition curve.

Assay [1] concerns anammox activity of reactor effluent. As to the kind of experiment: Incubations of reactor effluent with effectors; anammox activity from headspace gas production rate. Particulars: for pIC50 / IC50: 30°C. It is filed as cell-based, "Ca. Kuenenia stuttgartiensis". How it is done: 60 mL nitrogen-flushed glass bottles were anoxically filled with 50 mL reactor effluent and closed with butyl rubber septa and aluminum crimp caps. Effectors were anoxically added with sterile syringes through the septa or directly added to the bottles as powder. Except for the experiment in which nitrite was varied, 3 mM nitrite was added at time 0. Each bottle was directly connected to a MPX5100DP pressure sensor via a 0.41 mm Luer Lock needle. All sensors were electrically connected to a LabJack converter for data reading and storage. Pressure sensors were read every 3 seconds. In total, twelve such bottles were set up for each experiment, allowing the simultaneous testing of five different effector concentrations in duplicate plus two bottles as negative controls without effector.
Experiments were incubated for 24 hours after which 3 mL air was injected into each bottle for calibration of the pressure sensor readings. Gas production rates were calculated as mL per day across 1,000 consecutive data points (3,000 seconds). […] The same time frame was chosen for all twelve bottles in one experiment to calculate anammox activities from the slopes.
For that the reactor effluent was incubated in closed bottles and monitored the pressure build-up in the headspace over time. […] Legend: the number before the dash indicates the chloramphenicol concentration in mg L^-1, the number behind the dash indicates the number of the replicate. (A) Gas production; (B) Gas production rate calculated in a window of 1,000 consecutive data points (equivalent to 3,000 seconds).

Assay [2] concerns anammox activity of "Ca. Kuenenia stuttgartiensis ". Particulars: 20 mg L^-1 chloramphenicol, sequencing batch reactor, after 4 days; cited from earlier work.
Assay [3] has the same test system. To be noted: 1 g L^-1 chloramphenicol; cited from earlier work.
Assay [4] relates to "Ca. Kuenenia stuttgartiensis". To be noted: previous reports; cited from earlier work.
In another assay the test system is anammox activity. The experiment in a line: Semi-CSTR reactor operation under critical conditions (pulse addition, reactor collapse). It counts as cell-based, "Ca. Kuenenia stuttgartiensis". To be noted: pulse of 0.2 mM Na2S added to the reactor. How it is done:
The reactor effluent was collected in anoxic 2-liter bottles and stored in the dark at 4°C to be used later for inhibitor tests (see below) or as inoculum when the reactor collapsed. During one-year operation under experimental conditions, the reactor intentionally collapsed three times under three different critical conditions: 1) after the reactor was incubated for 24 h at 38.6°C without feeding nitrite, 2) after a pulse of 0.2 mM Na2S was added, and 3) after a pulse of 65 µM FeCl2 was added. […] After such reactor collapses, the reactor could be reproducibly regenerated with the stored eluent bottles. The activity in the effluent bottles was recovered, as judged from pressure production rates, within only 2 days when a bottle was warmed up to room temperature, spiked with 3 mM nitrite and incubated at 30°C. Effluent could be stored at 4°C for at least three months without startup delay.

Where [5] appears, read: reactor effluent, gas production rate normalized to controls without effector.

pIC50: −log10 of the molar value.

As to `[Cl-].[Na+]` [NaCl], the inhibition in assay [1] (270 mM salt) is 75%; in assay [1] (salt concentrations up to 120 mM), “No apparent inhibition”. In assay [1] (reactor effluent), the “salt concentrations that start to inhibit anammox activity” value was in the range of 120 to 270 mM.

With phosphate, in assay [1] (6.5 mM phosphate), the “anammox activity higher than in the controls at 1.5 mM” value amounted to 11%. This molecule also displayed an anammox activity preserved in assay [1] (highest tested concentration of 51.5 mM phosphate) of 65%. Further, the “increase of anammox activity” value in assay [1] (phosphate concentration increased from 1.5 mM to 3.5 mM) was found to be 16%. This molecule gave a negative logarithm of the IC50 (pIC50) in assay [1] (setting [5]) of under 1.29.

Regarding `O=C(N[C@H](CO)[C@H](O)c1ccc([N+](=O)[O-])cc1)C(Cl)Cl` [chloramphenicol], in assay [2], the “drop in reactor efficiency” value is given as 25% and the “drop in specific anammox activity” value is given as 75%. Also, in assay [3], the inhibition result is “no apparent inhibition”. This molecule also had an inhibition at 30 µg/mL in assay [1] (chloramphenicol 30 mg L^-1) of 57%. This molecule came in with an IC50 in assay [1] (reactor effluent, 3 mM nitrite) of 19 µg/mL.

As to `O=N[O-].[Na+]` [nitrite, NaNO2], the tolerant to nitrite in assay [4] is 13 to 25 mM. The inhibition in assay [1] (nitrite at 6 mM) is reported as 24%; in assay [1] (nitrite at 6 mM, as worded in the discussion), “severe inhibition”. This molecule also showed a negative-log IC50 (pIC50) in assay [1] (setting [5]) of 2.02.

Consider `CN(C)c1ccc2nc3ccc(=[N+](C)C)cc-3sc2c1` [methylene blue], for which the inhibition in assay [1] (100 µg L^-1 methylene blue) amounted to 86%. In addition, the “inhibition of anammox activity” value in assay [1] (methylene blue 10 µg L^-1) is reported as “no apparent inhibition”. This molecule also gave a 50% inhibitory concentration (IC50) in assay [1] (reactor effluent, 3 mM nitrite) of 0.053 µg/mL.

For the molecule `[Na+].[Na+].[S-2]` [sulfide, Na2S], in the assay with anammox activity, the “effect on the reactor” value is reported as “complete loss of the anammox activity”. Besides, in assay [1] (reactor effluent, 3 mM nitrite), the pIC50 is 5.30. Further, in assay [1] (sulfide at 5 µM), the “inhibition of anammox activity” value is on record as “severely inhibited”.
